# Reference: patent US20260274829A1, “NEW E3 UBIQUITIN LIGASE LIGAND, PROTEIN DEGRADATION AGENT AND USE THEREOF” (GLUETACS THERAPEUTICS (SHANGHAI) CO., LTD., priority 2023, published 2026)
# Target: T1, human Cereblon WT GST-tagged protein (Homo sapiens, UniProt Q96SW2)
# T1 construct: purchased CISBIO 64BDCRBNPEH
# Test: CRBN binding, HTRF CEREBLON BINDING kit
# Conditions: CRBN binding, HTRF CEREBLON BINDING kit
# Outline: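 HTRF competition in which test compounds displace a Thalidomide-Re tracer from GST-tagged human Cereblon WT, detected with a GST Eu antibody. Incubation lasted 3 hours at room temperature, with emission read at 620 and 665 nm. Inhibition rate was derived from 665/620 ratios relative to blank and solvent control wells.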
# T1 sequence (Q96SW2 whole entry): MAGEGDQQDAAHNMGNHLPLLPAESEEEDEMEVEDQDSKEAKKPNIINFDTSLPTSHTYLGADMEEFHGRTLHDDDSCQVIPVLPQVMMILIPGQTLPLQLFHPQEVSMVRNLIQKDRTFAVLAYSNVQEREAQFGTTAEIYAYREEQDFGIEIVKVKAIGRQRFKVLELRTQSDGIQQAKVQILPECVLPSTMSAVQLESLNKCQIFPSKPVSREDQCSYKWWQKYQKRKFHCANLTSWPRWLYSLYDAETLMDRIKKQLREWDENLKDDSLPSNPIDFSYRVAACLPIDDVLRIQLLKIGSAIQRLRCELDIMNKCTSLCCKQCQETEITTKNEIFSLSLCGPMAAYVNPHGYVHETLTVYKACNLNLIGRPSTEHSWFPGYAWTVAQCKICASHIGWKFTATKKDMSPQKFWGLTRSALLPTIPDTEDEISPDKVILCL
row,Structure (SMILES),IC50 [nM]
1,"Nc1nnc(-c2ccccc2O)cc1N1CCN(Cc2ccc(N3CCC(=O)NC3=O)cn2)CC1 [GT-05016, 1-(6-((4-(3-amino-6-(2-hydroxyphenyl)pyridazin-4-yl)piperazin-1-yl)methyl)pyridin-3-yl)dihydropyrimidine-2,4(1H,3H)-dione]",500 to 1000
2,"Cn1cc(-c2cc(S(C)(=O)=O)ccc2OCc2ccc(C3CCC(=O)NC3=O)cc2)c2cc[nH]c2c1=O (stereo not drawn) [GT-06415, 3-(4-((2-(6-methyl-7-oxo-6,7-dihydro-1H-pyrrolo[2,3-c]pyridin-4-yl)-4-(methylsulfonyl)phenoxy)methyl)phenyl)piperidine-2,6-dione]",< 500
3,"CN(C)C(=O)c1cc2cnc(Nc3ccc(N4CCC(N(C)Cc5ccc(N6CCC(=O)NC6=O)cc5)CC4)cn3)nc2n1C1CCCC1 [GT-06491, 7-cyclopentyl-2-((5-(4-((4-(2,4-dioxotetrahydropyrimidin-1(2H)-yl)benzyl)(methyl)amino)piperidin-1-yl)pyridin-2-yl)amino)-N,N-dimethyl-7H-pyrrolo[2,3-d]pyrimidine-6-carboxamide]",500 to 1000
4,"COc1cc(N2CCN(Cc3cncc(N4CCC(=O)NC4=O)c3)CC2)ccc1Nc1ncc(Cl)c(Nc2ccccc2P(C)(C)=O)n1 [GT-07709, 1-(5-((4-(4-((5-chloro-4-((2-(dimethylphosphoryl)phenyl)amino)pyrimidin-2-yl)amino)-3-methoxyphenyl)piperazin-1-yl)methyl)pyridin-3-yl)dihydropyrimidine-2,4(1H,3H)-dione]",500 to 1000
5,"CCc1cc2c(cc1N1CCN(Cc3ccc(C4CCC(=O)NC4=O)cc3)CC1)C(C)(C)c1[nH]c3cc(C#N)ccc3c1C2=O (stereo not drawn) [GT-07323, 8-(4-(4-(2,6-dioxopiperidin-3-yl)benzyl)piperazin-1-yl)-9-ethyl-6,6-dimethyl-11-oxo-6,11-dihydro-5H-benzo[b]carbazole-3-carbonitrile]",500 to 1000
6,"Cn1cc(-c2cc(S(C)(=O)=O)ccc2OCc2ccc(N3CCC(=O)NC3=O)cn2)c2cc[nH]c2c1=O [GT-06416, 1-(6-((2-(6-methyl-7-oxo-6,7-dihydro-1H-pyrrolo[2,3-c]pyridin-4-yl)-4-(methylsulfonyl)phenoxy)methyl)pyridin-3-yl)dihydropyrimidine-2,4(1H,3H)-dione]",1000 to 1900
7,"Cc1nc2c(F)cc(-c3nc(Nc4ccc(CN5CCN(Cc6ccc(N7CCC(=O)NC7=O)cn6)CC5)cn4)ncc3F)cc2n1C(C)C [GT-06667, 1-(6-((4-((6-((5-fluoro-4-(4-fluoro-1-isopropyl-2-methyl-1H-benzo[d]imidazol-6-yl)pyrimidin-2-yl)amino)pyridin-3-yl)methyl)piperazin-1-yl)methyl)pyridin-3-yl)dihydropyrimidine-2,4(1H,3H)-dione]",1000 to 1900
8,"C#Cc1cccc(Nc2ncnc3cc(OCCOC)c(OCCOC)cc23)c1 [erlotinib, reference compound]",> 10000
9,"COc1cc2nn(C3CCN(Cc4ccc(C5CCC(=O)NC5=O)c(F)c4)CC3)cc2cc1NC(=O)c1cccc(C(F)(F)F)n1 (stereo not drawn) [GT-04762, N-(2-(1-(4-(2,6-dioxopiperidin-3-yl)-3-fluorobenzyl)piperidin-4-yl)-6-methoxy-2H-indazol-5-yl)-6-(trifluoromethyl)picolinamide]",1000 to 1900

# Continued, values first:
row,IC50 [nM],Structure (SMILES)
1,500 to 1000,"NC(=O)c1ncc(N2CCCCC2)nc1Nc1ccc(C2CCN(Cc3cccc(N4CCC(=O)NC4=O)c3)CC2)cc1 [GT-04787, 3-((4-(1-(3-(2,4-dioxotetrahydropyrimidin-1(2H)-yl)benzyl)piperidin-4-yl)phenyl)amino)-5-(piperidin-1-yl)pyrazine-2-carboxamide]"
2,500 to 1000,"O=C1CCC(c2ccc(CN3C[C@@H]4C[C@H]3CN4c3ccc(-c4cc(F)c5c(c4)C(=O)N(C(C(=O)Nc4nccs4)c4ncn6c4CCC6)C5)cc3)cc2)C(=O)N1 (stereo partly drawn) [GT-05115, 2-(6,7-dihydro-5H-pyrrolo[1,2-c]imidazol-1-yl)-2-(6-(4-((1S,4S)-5-(4-(2,6-dioxopiperidin-3-yl)benzyl)-2,5-diazabicyclo[2.2.1]heptan-2-yl)phenyl)-4-fluoro-1-oxoisoindolin-2-yl)-N-(thiazol-2-yl)acetamide]"
3,500 to 1000,"O=C1CCN(c2ccc(CN3CCN(C4CCN(c5ccc(Nc6ncc7nc(Nc8ccccc8)n(C8CCCC8)c7n6)cc5)CC4)CC3)cc2)C(=O)N1 [GT-05917, 1-(4-((4-(1-(4-((9-cyclopentyl-8-(phenylamino)-9H-purin-2-yl)amino)phenyl)piperidin-4-yl)piperazin-1-yl)methyl)phenyl)dihydropyrimidine-2,4(1H,3H)-dione]"
4,500 to 1000,"Cc1cc(-c2nc(C(=O)Nc3cc4oc(N5CCN(Cc6ccc(N7CCC(=O)NC7=O)cc6)CC5)nc4nc3N3CC[C@@H](O)C3)co2)ccn1 [GT-05807, (R)—N-(2-(4-(4-(2,4-dioxotetrahydropyrimidin-1(2H)-yl)benzyl)piperazin-1-yl)-5-(3-hydroxypyrrolidin-1-yl)oxazolo[4,5-b]pyridin-6-yl)-2-(2-methylpyridin-4-yl)oxazole-4-carboxamide]"
5,< 500,"Cc1nc2c(F)cc(-c3nc(Nc4ccc(CN5CCN(Cc6cccc(N7CCC(=O)NC7=O)c6)CC5)cn4)ncc3F)cc2n1C(C)C [GT-06666, 1-(3-((4-((6-((5-fluoro-4-(4-fluoro-1-isopropyl-2-methyl-1H-benzo[d]imidazol-6-yl)pyrimidin-2-yl)amino)pyridin-3-yl)methyl)piperazin-1-yl)methyl)phenyl)dihydropyrimidine-2,4(1H,3H)-dione]"
6,< 500,"CN1CCN([C@@H]2CCCN(c3cnc(C(N)=O)c(Nc4ccc(C5CCN(Cc6ccc(N7CCC(=O)NC7=O)c(F)c6)CC5)cc4)n3)C2)C1=O [GT-04801, (R)-3-((4-(1-(4-(2,4-dioxotetrahydropyrimidin-1(2H)-yl)-3-fluorobenzyl)piperidin-4-yl)phenyl)amino)-5-(3-(3-methyl-2-oxoimidazolidin-1-yl)piperidin-1-yl)pyrazine-2-carboxamide]"
7,500 to 1000,"O=C1CCN(c2ccc(CN3CCC(n4cc(NC(=O)c5cnn6ccc(N7C[C@H]8C[C@@H]7CO8)nc56)c(C(F)F)n4)CC3)cc2)C(=O)N1 [GT-05029, 5-((1R,4R)-2-oxa-5-azabicyclo[2.2.1]heptan-5-yl)-N-(3-(difluoromethyl)-1-(1-(4-(2,4-dioxotetrahydropyrimidin-1(2H)-yl)benzyl)piperidin-4-yl)-1H-pyrazol-4-yl)pyrazolo[1,5-a]pyrimidine-3-carboxamide]"
8,500 to 1000,"CCc1cc2c(cc1N1CCC(N3CCN(Cc4ccc(N5CCC(=O)NC5=O)cc4F)CC3)CC1)C(C)(C)c1[nH]c3cc(C#N)ccc3c1C2=O [GT-07309, 8-(4-(4-(4-(2,4-dioxotetrahydropyrimidin-1(2H)-yl)-2-fluorobenzyl)piperazin-1-yl)piperidin-1-yl)-9-ethyl-6,6-dimethyl-11-oxo-6,11-dihydro-5H-benzo[b]carbazole-3-carbonitrile]"
9,< 500,"O=C1CCC(c2ccc(CN3CCN(c4ccc(-c5cc(F)c6c(c5)C(=O)N(C(C(=O)Nc5nccs5)c5ncn7c5CCC7)C6)cc4)CC3)nc2)C(=O)N1 (stereo not drawn) [GT-07381, 2-(6,7-dihydro-5H-pyrrolo[1,2-c]imidazol-1-yl)-2-(6-(4-(4-((5-(2,6-dioxopiperidin-3-yl)pyridin-2-yl)methyl)piperazin-1-yl)phenyl)-4-fluoro-1-oxoisoindolin-2-yl)-N-(thiazol-2-yl)acetamide]"
10,500 to 1000,"O=C1CCN(c2cccc(CN3C[C@@H]4C[C@H]3CN4c3ccc(-c4cc(F)c5c(c4)C(=O)N(C(C(=O)Nc4nccs4)c4ncn6c4CCC6)C5)cc3)c2)C(=O)N1 (stereo partly drawn) [GT-05117, 2-(6,7-dihydro-5H-pyrrolo[1,2-c]imidazol-1-yl)-2-(6-(4-((1S,4S)-5-(3-(2,4-dioxotetrahydropyrimidin-1(2H)-yl)benzyl)-2,5-diazabicyclo[2.2.1]heptan-2-yl)phenyl)-4-fluoro-1-oxoisoindolin-2-yl)-N-(thiazol-2-yl)acetamide]"
11,< 500,"O=C1CCC(c2ccc(CN3C[C@H]4C[C@@H]3CN4c3ccc(-c4cc(F)c5c(c4)C(=O)N(C(C(=O)Nc4nccs4)c4ncn6c4CCC6)C5)cc3)nc2)C(=O)N1 (stereo partly drawn) [GT-07389, 2-(6,7-dihydro-5H-pyrrolo[1,2-c]imidazol-1-yl)-2-(6-(4-((1R,4R)-5-((5-(2,6-dioxopiperidin-3-yl)pyridin-2-yl)methyl)-2,5-diazabicyclo[2.2.1]heptan-2-yl)phenyl)-4-fluoro-1-oxoisoindolin-2-yl)-N-(thiazol-2-yl)acetamide]"
12,500 to 1000,"CC(C)(O)c1cc2nn(C3CCN(Cc4cccc(N5CCC(=O)NC5=O)c4)CC3)cc2cc1NC(=O)c1cccc(C(F)(F)F)n1 [GT-05755, N-(2-(1-(3-(2,4-dioxotetrahydropyrimidin-1(2H)-yl)benzyl)piperidin-4-yl)-6-(2-hydroxypropan-2-yl)-2H-indazol-5-yl)-6-(trifluoromethyl)picolinamide]"
13,< 500,"O=C1CCN(c2cccc(CN3CCN(C4CCN(c5ccc(-c6cc(F)c7c(c6)C(=O)N(C(C(=O)Nc6nccs6)c6ncn8c6CCC8)C7)cc5)CC4)CC3)c2)C(=O)N1 (stereo not drawn) [GT-06245, 2-(6,7-dihydro-5H-pyrrolo[1,2-c]imidazol-1-yl)-2-(6-(4-(4-(4-(3-(2,4-dioxotetrahydropyrimidin-1(2H)-yl)benzyl)piperazin-1-yl)piperidin-1-yl)phenyl)-4-fluoro-1-oxoisoindolin-2-yl)-N-(thiazol-2-yl)acetamide]"

# Same assay, conditions: CRBN binding, HTRF; compound at 0.5 μM; read-out: Inhibition rate (%) at 0.5 μM
row,Structure (SMILES),inhibition at 0.5 µM [%]
1,"CC1(C)CCC(c2ccc(Cl)cc2)=C(CN2CCN(c3ccc(C(=O)NS(=O)(=O)c4ccc(N[C@H](CCN5CC6CCC(C5)N6Cc5ccc(C6CCC(=O)NC6=O)cc5)CSc5ccccc5)c(S(=O)(=O)C(F)(F)F)c4)cc3)CC2)C1 (stereo partly drawn) [GT-07858, 4-(4-((4′-chloro-4,4-dimethyl-3,4,5,6-tetrahydro-[1,1′-biphenyl]-2-yl)methyl)piperazin-1-yl)-N-((4-(((2R)-4-(8-(4-(2,6-dioxopiperidin-3-yl)benzyl)-3,8-diazabicyclo[3.2.1]octan-3-yl)-1-(phenylthio)butan-2-yl)amino)-3-((trifluoromethyl)sulfonyl)phenyl)sulfonyl)benzamide]",30 to 40

# Same assay, conditions: CRBN binding, HTRF; compound at 2 μM; read-out: Inhibition rate (%) at 2 μM
row,Structure (SMILES),inhibition at 2 µM [%]
1,"CC1(C)CCC(c2ccc(Cl)cc2)=C(CN2CCN(c3ccc(C(=O)NS(=O)(=O)c4ccc(N[C@H](CCN5CC6CCC(C5)N6Cc5ccc(C6CCC(=O)NC6=O)cc5)CSc5ccccc5)c(S(=O)(=O)C(F)(F)F)c4)cc3)CC2)C1 (stereo partly drawn) [GT-07858, 4-(4-((4′-chloro-4,4-dimethyl-3,4,5,6-tetrahydro-[1,1′-biphenyl]-2-yl)methyl)piperazin-1-yl)-N-((4-(((2R)-4-(8-(4-(2,6-dioxopiperidin-3-yl)benzyl)-3,8-diazabicyclo[3.2.1]octan-3-yl)-1-(phenylthio)butan-2-yl)amino)-3-((trifluoromethyl)sulfonyl)phenyl)sulfonyl)benzamide]",60 to 80
